Measurements taken from patent US20230364243A1, “CANCER-SELECTIVE TARGET DEGRADATION BY TARGETING GROUP CAGED PROTACS” (Beth Israel Deaconess Medical Center, Inc., priority 2021, published 2023).

Experiments:
NPM-ALK fusion protein = biological target: T1, NPM-ALK fusion protein (Homo sapiens, UniProt Q9UM73); assay: Western blot analysis of NPM-ALK fusion protein in SU-DHL-1 cells; format: cell-based; settings: for effect in degrading NPM-ALK fusion protein after pretreatment with folic acid: free folic acid pretreatment; for DC50: read-out: DC50 of NPM-ALK fusion protein degradation
T1 construct: endogenous in cells; host or cells: SU-DHL-1; the other entry of the earlier key: NPM1 (P06748, Nucleophosmin)
T1 sequence (Q9UM73 with tags, fused parts or gaps): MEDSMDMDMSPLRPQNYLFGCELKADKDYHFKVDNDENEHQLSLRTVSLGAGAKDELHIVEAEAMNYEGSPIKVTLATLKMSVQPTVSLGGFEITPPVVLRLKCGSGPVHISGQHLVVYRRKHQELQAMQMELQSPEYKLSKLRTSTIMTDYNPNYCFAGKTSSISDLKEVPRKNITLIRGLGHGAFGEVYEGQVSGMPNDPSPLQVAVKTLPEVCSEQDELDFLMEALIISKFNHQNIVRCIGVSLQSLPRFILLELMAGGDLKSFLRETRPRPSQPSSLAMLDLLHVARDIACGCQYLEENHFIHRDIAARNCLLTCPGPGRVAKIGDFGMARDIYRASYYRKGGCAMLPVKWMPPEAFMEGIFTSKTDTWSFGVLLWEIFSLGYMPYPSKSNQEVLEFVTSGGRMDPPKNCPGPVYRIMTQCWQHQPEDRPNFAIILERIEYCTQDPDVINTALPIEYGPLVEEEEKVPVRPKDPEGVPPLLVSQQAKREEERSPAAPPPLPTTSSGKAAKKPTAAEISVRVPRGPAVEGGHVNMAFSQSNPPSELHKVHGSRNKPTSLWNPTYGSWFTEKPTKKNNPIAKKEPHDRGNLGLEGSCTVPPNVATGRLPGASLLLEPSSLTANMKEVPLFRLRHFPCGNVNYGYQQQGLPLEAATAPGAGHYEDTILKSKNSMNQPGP
Method: (§1) For folic acid competitive degradation assay, cells were pretreated with folic acid (F8758, Sigma-Aldrich, 2.5 mM) for 2 hours, followed by the treatment of indicated PROTACs for indicated time. For endocytosis inhibition, cells were pretreated with Pitostop 2 (SML1169, Sigma-Aldrich, 1-30 μM) or MCD (21633, Cayman, 0.03-1 mM) for 12 hours, followed by co-treatment with indicated PROTACs for another 12 hours. For proteasome or E3 ligase inhibition assay, cells were treated with MG132 (BML-P11020, ENZO Life Sciences, 10 μM) or MLN4924 (S7109, SelleckChem, 1 μM) another 12 hours. For GSH-stimulating assay, cells were treated with S-Acetyl-GSH (29624, Cayman, 1 mM) with indicated PROTACs for 12 or 72 hours.
(§2) Cells were lysed in EBC buffer (50 mM Tris pH 7.5, 120 mM NaCl, 0.5% NP-40) supplemented with protease inhibitors (Pierce) and phosphatase inhibitors (phosphatase inhibitor cocktail set I and II, Calbiochem). The protein concentrations of the lysates were measured using the Bio-Rad protein assay reagent on a Beckman Coulter DU-800 spectrophotometer. The lysates were then resolved by SDS-PAGE and immunoblotted with indicated antibodies.
(§3) Cells were lysed in EBC buffer (50 mM Tris-HCl pH 7.5, 120 mM NaCl and 0.5% NP-40) supplemented with protease inhibitors (Pierce) and phosphatase inhibitors (phosphatase inhibitor cocktailset I and II, Calbiochem). The protein concentrations of the lysates were measured using the Bio-Rad protein assay reagent on a Beckman Coulter DU-800 spectrophotometer. The lysates (40 μg protein) werethen resolved by 10% SDS-olyacrylamide gel electrophoresis (PAGE) at 130 V for 80 min and immunoblotted with indicated antibodies at 4° C. overnight, washed four times with Tris-buffered saline with 0.1% Tween-20 (TBST) buffer, incubated with secondary antibody for 1 hour at room temperature, and then washed 4 times with TBST.

SU-DHL-1 cells = assay: Cell viability of SU-DHL-1 cells (CCK-8); format: cell-based; settings: 72 hours; for IC50: Homo sapiens, read-out: IC50 cell viability / proliferation
Method: as §1
Cell in 96-well plates were treated with drugs as indicated, and then incubated with 10 μl/well of CCK-8 (cell counting Kit-8) solution at for 1-2 hours, followed by the measurement of optical density at 450 nm.

[1] = Release of active compound after incubation with DTT in PBS at 37° C., HPLC analysis; format: physicochemical; settings: 37° C. in PBS; for release of MS4048 after DTT treatment: DTT (10 equiv), HPLC
Method: FA-S2-POMA and the negative control FA-C2-POMA were incubated with dithiothreitol (DTT) under physiological conditions (37° C. in phosphate buffered saline (PBS)) and then subjected to HPLC analysis.
The effects of these folate caged PROTACS on ALK fusion protein degradation was assessed in cancer cells. FA-S2-MS4048 and FA-C2-MS4048 were incubated with DTT at 37° C. in PBS. […] Furthermore, compared to FA-S2-POMA (FIG. 11B), the release rate of FA-S2-MS4048 is slower.

EML4-ALK fusion protein = biological target: T2, EML4-ALK fusion protein (Homo sapiens, UniProt Q9UM73); assay: Western blot analysis of EML4-ALK fusion protein in NCI-H2228 and NCI-H3122 NSCLC cells; format: cell-based
T2 construct: endogenous in cells; host or cells: NCI-H2228, NCI-H3122; the other entry of the earlier key: EML4 (Q9HC35, Echinoderm microtubule-associated protein-like 4)
T2 sequence (Q9UM73 1058-1620 limits assumed): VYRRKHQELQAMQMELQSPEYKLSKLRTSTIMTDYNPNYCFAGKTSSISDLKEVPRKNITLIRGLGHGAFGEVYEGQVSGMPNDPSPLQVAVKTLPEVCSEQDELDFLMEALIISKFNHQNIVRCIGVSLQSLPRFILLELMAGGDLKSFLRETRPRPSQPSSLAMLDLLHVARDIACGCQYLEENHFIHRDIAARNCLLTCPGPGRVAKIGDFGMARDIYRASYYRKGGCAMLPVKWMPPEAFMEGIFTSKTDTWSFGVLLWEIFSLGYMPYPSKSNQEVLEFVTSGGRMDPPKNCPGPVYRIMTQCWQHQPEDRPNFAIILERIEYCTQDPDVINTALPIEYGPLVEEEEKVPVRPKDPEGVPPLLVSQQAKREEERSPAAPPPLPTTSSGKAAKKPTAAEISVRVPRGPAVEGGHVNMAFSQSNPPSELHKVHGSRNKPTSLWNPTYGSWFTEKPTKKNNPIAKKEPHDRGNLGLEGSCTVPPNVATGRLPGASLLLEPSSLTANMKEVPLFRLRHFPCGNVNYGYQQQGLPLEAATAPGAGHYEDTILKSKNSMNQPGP
Method: as §1, §2, §3

MEK1 and MEK2 = assay: Western blot analysis of MEK1 and MEK2 levels in HT29 and SK-MEL-28 cells; format: cell-based; settings: HT29 and SK-MEL-28 cells, dose- and time-dependent
Method: as §1, §2, §3

SMILES	degradation of NPM-ALK fusion protein (NPM-ALK fusion protein; SU-DHL-1 cells)	IC50 (SU-DHL-1 cells) [nM]	release of MS4048 after DTT treatment [1]	effect in degrading NPM-ALK fusion protein after pretreatment with folic acid (NPM-ALK fusion protein; SU-DHL-1 cells)	degradation of EML4-ALK fusion proteins (EML4-ALK fusion protein)	DC50 (NPM-ALK fusion protein; SU-DHL-1 cells, 12 hours) [nM]	further results
Cc1cc(Nc2ncc(Cl)c(Nc3ccccc3S(=O)(=O)C(C)C)n2)c(OC(C)C)cc1C1CCN(CC(=O)NCCNc2cccc3c2C(=O)N(C2CCC(=O)N(C(=O)OCCCCCCn4cc(CNC(=O)CC[C@H](NC(=O)c5ccc(NCc6cnc7nc(N)[nH]c(=O)c7n6)cc5)C(=O)O)nn4)C2=O)C3=O)CC1 (stereo partly drawn) [FA-C2-MS4048, N^2-(4-(((2-amino-4-oxo-3,4-dihydropteridin-6-yl)methyl)amino)benzoyl)-N^5-((1-(6-((3-(4-((2-(2-(4-(4-((5-chloro-4-((2-(isopropylsulfonyl)phenyl)amino)pyrimidin-2-yl)amino)-5-isopropoxy-2-methylphenyl)piperidin-1-yl)acetamido)ethyl)amino)-1,3-dioxoisoindolin-2-yl)-2,6-dioxopiperidine-1-carbonyl)oxy)hexyl)-1H-1,2,3-triazol-4-yl)methyl)-L-glutamine]	had some degradation effect	9500	no release of MS4048				
Cc1cc(Nc2ncc(Cl)c(Nc3ccccc3S(=O)(=O)C(C)C)n2)c(OC(C)C)cc1C1CCN(CC(=O)NCCNc2cccc3c2C(=O)N(C2CCC(=O)N(C(=O)OCCSSCCn4cc(CNC(=O)CC[C@H](NC(=O)c5ccc(NCc6cnc7nc(N)[nH]c(=O)c7n6)cc5)C(=O)O)nn4)C2=O)C3=O)CC1 (stereo partly drawn) [FA-S2-MS4048, N^2-(4-(((2-amino-4-oxo-3,4-dihydropteridin-6-yl)methyl)amino)benzoyl)-N^5-((1-(2-((2-((3-(4-((2-(2-(4-(4-((5-chloro-4-((2-(isopropylsulfonyl)phenyl)amino)pyrimidin-2-yl)amino)-5-isopropoxy-2-methylphenyl)piperidin-1-yl)acetamido)ethyl)amino)-1,3-dioxoisoindolin-2-yl)-2,6-dioxopiperidine-1-carbonyl)oxy)ethyl)disulfanyl)ethyl)-1H-1,2,3-triazol-4-yl)methyl)-L-glutamine]	effectively degraded	465	efficient release of MS4048	blocked the effect	effectively degraded		potency in degrading the ALK proteins compared with FA-C2-MS4048 (NPM-ALK fusion protein; ALK fusion proteins): more potent than FA-C2-MS4048; potency in degrading the proteins of interest compared with MS4048 (NPM-ALK fusion protein; ALK fusion proteins): less potent than its uncaged analog, MS4048; time at which significant degradation was observed (NPM-ALK fusion protein; SU-DHL-1 cells, 3 μM): ≤ 1 h; effect on degrading NPM-ALK after depletion of endogenous CRBN E3 ligase (NPM-ALK fusion protein; SU-DHL-1 cells, 3 μM, 12 hours): significantly reduced the effect; effect on degrading NPM-ALK after knockdown of FOLR1 via shRNAs (NPM-ALK fusion protein; SU-DHL-1 cells, 3 μM, 12 hours): completely abolished the effect; degradation of NPM-ALK with MG132 or MLN4924 (NPM-ALK fusion protein; SU-DHL-1 cells, 10 μM MG132 or 1 μM MLN4924): blocked the degradation of NPM-ALK; potency in degrading NPM-ALK after pretreatment with S-Ac-GSH (NPM-ALK fusion protein; SU-DHL-1 cells, S-Ac-GSH 1 mM): significant increase in potency; degradation of EML4-ALK with MG132 or MLN4924 (EML4-ALK fusion protein; MG132 or MLN4924): blocked the degradation; potency in inhibiting proliferation after pretreatment with folic acid (SU-DHL-1 cells; 2.5 mM folic acid): significantly reduced potency; potency in inhibiting proliferation after pretreatment with S-Ac-GSH (SU-DHL-1 cells; S-Ac-GSH 1 mM): significantly increased potency; release rate compared to FA-S2-POMA ([1]; DTT): slower
Cc1cc(Nc2ncc(Cl)c(Nc3ccccc3S(=O)(=O)C(C)C)n2)c(OC(C)C)cc1C1CCN(C(=O)CCCC(=O)N[C@H](C(=O)N2C[C@H](OC(=O)CCCCn3cc(CNC(=O)CC[C@H](NC(=O)c4ccc(NCc5cnc6nc(N)[nH]c(=O)c6n5)cc4)C(=O)O)nn3)C[C@H]2C(=O)N[C@@H](C)c2ccc(-c3scnc3C)cc2)C(C)(C)C)CC1 [Folate-MS99, N^2-(4-(((2-amino-4-oxo-3,4-dihydropteridin-6-yl)methyl)amino)benzoyl)-N^5-((1-(5-(((3R,5S)-1-((S)-2-(5-(4-(4-((5-chloro-4-((2-(isopropylsulfonyl)phenyl)amino)pyrimidin-2-yl)amino)-5-isopropoxy-2-methylphenyl)piperidin-1-yl)-5-oxopentanamido)-3,3-dimethylbutanoyl)-5-(((S)-1-(4-(4-methylthiazol-5-yl)phenyl)ethyl)carbamoyl)pyrrolidin-3-yl)oxy)-5-oxopentyl)-1H-1,2,3-triazol-4-yl)methyl)-L-glutamine]	degraded NPM-ALK fusion protein efficiently	200		antagonized the effect	efficiently degraded the EML4-ALK fusion proteins	100	effect in degrading EML4-ALK fusion protein after pretreatment with free folic acid (EML4-ALK fusion protein; free folic acid pretreatment): antagonized the effect
Cc1cc(Nc2ncc(Cl)c(Nc3ccccc3S(=O)(=O)C(C)C)n2)c(OC(C)C)cc1C1CCN(C(=O)CCCC(=O)N[C@H](C(=O)N2C[C@H](NC(=O)CCCCn3cc(CNC(=O)CC[C@H](NC(=O)c4ccc(NCc5cnc6nc(N)[nH]c(=O)c6n5)cc4)C(=O)O)nn3)C[C@H]2C(=O)N[C@@H](C)c2ccc(-c3scnc3C)cc2)C(C)(C)C)CC1 [Folate-MS99N, N^2-(4-(((2-amino-4-oxo-3,4-dihydropteridin-6-yl)methyl)amino)benzoyl)-N^5-((1-(5-(((3R,5S)-1-((S)-2-(5-(4-(4-((5-chloro-4-((2-(isopropylsulfonyl)phenyl)amino)pyrimidin-2-yl)amino)-5-isopropoxy-2-methylphenyl)piperidin-1-yl)-5-oxopentanamido)-3,3-dimethylbutanoyl)-5-(((S)-1-(4-(4-methylthiazol-5-yl)phenyl)ethyl)carbamoyl)pyrrolidin-3-yl)amino)-5-oxopentyl)-1H-1,2,3-triazol-4-yl)methyl)-L-glutamine]							degrading NPM-ALK (NPM-ALK fusion protein; SU-DHL-1 cells, even at 3 μM): incapable of degrading NPM-ALK
Cc1ncsc1-c1ccc([C@H](C)NC(=O)[C@@H]2C[C@@H](NC(=O)CCCCn3cc(CNC(=O)CC[C@H](NC(=O)c4ccc(NCc5cnc6nc(N)[nH]c(=O)c6n5)cc4)C(=O)O)nn3)CN2C(=O)[C@@H](NC(=O)CCCCCCCCCCNCCCONC(=O)c2ccc(F)c(F)c2Nc2ccc(I)cc2F)C(C)(C)C)cc1 [Folate-MS432N, N^2-(4-(((2-amino-4-oxo-3,4-dihydropteridin-6-yl)methyl)amino)benzoyl)-N^5-((1-(5-(((3R,5S)-1-((S)-2-(11-((3-((3,4-difluoro-2-((2-fluoro-4-iodophenyl)amino)benzamido)oxy)propyl)amino)undecanamido)-3,3-dimethylbutanoyl)-5-(((S)-1-(4-(4-methylthiazol-5-yl)phenyl)ethyl)carbamoyl)pyrrolidin-3-yl)amino)-5-oxopentyl)-1H-1,2,3-triazol-4-yl)methyl)-L-glutamine]							degradation of MEK1 and MEK2 (MEK1 and MEK2): could not do so
Cc1cc(Nc2ncc(Cl)c(Nc3ccccc3S(=O)(=O)C(C)C)n2)c(OC(C)C)cc1C1CCN(C(=O)CCCC(=O)N[C@H](C(=O)N2C[C@H](O)C[C@H]2C(=O)N[C@@H](C)c2ccc(-c3scnc3C)cc2)C(C)(C)C)CC1 [MS99, (2S,4R)-1-((S)-2-(5-(4-(4-((5-chloro-4-((2-(isopropylsulfonyl)phenyl)amino)pyrimidin-2-yl)amino)-5-isopropoxy-2-methylphenyl)piperidin-1-yl)-5-oxopentanamido)-3,3-dimethylbutanoyl)-4-hydroxy-N-((S)-1-(4-(4-methylthiazol-5-yl)phenyl)ethyl)pyrrolidine-2-carboxamide]	degraded NPM-ALK fusion protein efficiently	91.4				30	
